Results published in patent US20240059688A1, “CONOLIDINE ANALOGUES AS SELECTIVE ACKR3 MODULATORS FOR THE TREATMENT OF CANCER” (Luxembourg Institute of Health (LIH), priority 2020, published 2024).

Columns and labels:
Type in all cases: cell-based
[1] = biological target: ACKR3 (Homo sapiens, UniProt P25106); assay: ACKR3 β-arrestin recruitment assay (PathHunter, β-galactosidase complementation); conditions: for EC50: stable human ACKR3-β-arrestin-2-CHO cells, mean ± SEM, at least two independent experiments in duplicate; for Emax: read-out: ACKR3 β-arrestin % CXCL12 Emax ± SEM
Sequence of ACKR3 (P25106 whole entry): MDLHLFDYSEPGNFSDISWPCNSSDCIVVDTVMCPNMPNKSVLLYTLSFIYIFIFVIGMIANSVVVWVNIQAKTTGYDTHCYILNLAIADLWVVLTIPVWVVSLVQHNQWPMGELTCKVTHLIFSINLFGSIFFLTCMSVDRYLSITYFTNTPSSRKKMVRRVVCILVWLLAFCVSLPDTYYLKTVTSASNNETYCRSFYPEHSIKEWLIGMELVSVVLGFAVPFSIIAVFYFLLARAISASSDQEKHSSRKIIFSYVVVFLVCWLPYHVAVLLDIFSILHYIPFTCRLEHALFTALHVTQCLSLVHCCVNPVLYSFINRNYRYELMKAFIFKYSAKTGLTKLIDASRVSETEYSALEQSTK
Description: (§1) Compounds were evaluated for agonist activity using a β-arrestin recruitment assay based on β-galactosidase complementation (PathHunter, DiscoverX). Stable human ACKR3-β-arrestin-2-CHO cells (DiscoverX) were plated into 96-well white-walled assay plates at 15,000 cells/well in Cell Plating Reagent 2 (DiscoveRx) and incubated at 37° C., 5% CO2 overnight. The next day, test compounds were prepared at 10× concentration in DPBS/1% DMSO and 10 μL was added to the cells. CXCL-12 was included as a positive agonist control. Following a 1.5 hr incubation at 37° C., 55 μL of detection reagent (prepared according to the manufacturer's specifications) was added to each well. The plate was incubated at room temperature for 1 hr, after which luminescence was measured at 1 sec/well using an EnSpire multimode plate reader (PerkinElmer). Relative luminescence units (RLU) were plotted against the log of compound concentration and data were fit to a three-parameter logistic curve to generate EC50 values (GraphPad Prism). EC50 and % Emax values are reported as means±SEM and are the result of at least two independent experiments performed in duplicate. The CXCR4 assay was run similarly except that human CXCR4-C2Cl2 cells (DiscoverX) were plated at 20,000 cells/well in Cell Plating Reagent 9. The next day, the media was removed and cells were incubated with Cell Plating Reagent 4 for 3 hrs, after which the assay was conducted as described above.

[2] = biological target: T1, human CXCR4 (Homo sapiens, UniProt P61073); assay: CXCR4 β-arrestin recruitment assay (PathHunter); conditions: human CXCR4-C2Cl2 cells, relative to CXCL-12
T1 construct: host or cells: C2C12
T1 sequence (P61073 whole entry): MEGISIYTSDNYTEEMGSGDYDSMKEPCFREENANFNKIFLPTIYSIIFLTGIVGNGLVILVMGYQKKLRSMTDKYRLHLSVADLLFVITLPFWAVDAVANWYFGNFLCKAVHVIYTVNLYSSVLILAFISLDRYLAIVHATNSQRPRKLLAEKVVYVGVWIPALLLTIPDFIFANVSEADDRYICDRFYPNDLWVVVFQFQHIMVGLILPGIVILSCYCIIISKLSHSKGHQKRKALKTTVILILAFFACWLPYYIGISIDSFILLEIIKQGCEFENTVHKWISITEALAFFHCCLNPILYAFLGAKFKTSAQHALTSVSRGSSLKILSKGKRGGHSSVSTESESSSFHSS
Description: as §1

[3] = biological target: T2, CaV 3.2 (Homo sapiens, UniProt O95180); assay: CaV 3.2 calcium assay in stable human CaV3.2-HEK293 cells; conditions: control agonist calcium chloride
T2 construct: expressed in transfected cells
T2 sequence (O95180 whole entry): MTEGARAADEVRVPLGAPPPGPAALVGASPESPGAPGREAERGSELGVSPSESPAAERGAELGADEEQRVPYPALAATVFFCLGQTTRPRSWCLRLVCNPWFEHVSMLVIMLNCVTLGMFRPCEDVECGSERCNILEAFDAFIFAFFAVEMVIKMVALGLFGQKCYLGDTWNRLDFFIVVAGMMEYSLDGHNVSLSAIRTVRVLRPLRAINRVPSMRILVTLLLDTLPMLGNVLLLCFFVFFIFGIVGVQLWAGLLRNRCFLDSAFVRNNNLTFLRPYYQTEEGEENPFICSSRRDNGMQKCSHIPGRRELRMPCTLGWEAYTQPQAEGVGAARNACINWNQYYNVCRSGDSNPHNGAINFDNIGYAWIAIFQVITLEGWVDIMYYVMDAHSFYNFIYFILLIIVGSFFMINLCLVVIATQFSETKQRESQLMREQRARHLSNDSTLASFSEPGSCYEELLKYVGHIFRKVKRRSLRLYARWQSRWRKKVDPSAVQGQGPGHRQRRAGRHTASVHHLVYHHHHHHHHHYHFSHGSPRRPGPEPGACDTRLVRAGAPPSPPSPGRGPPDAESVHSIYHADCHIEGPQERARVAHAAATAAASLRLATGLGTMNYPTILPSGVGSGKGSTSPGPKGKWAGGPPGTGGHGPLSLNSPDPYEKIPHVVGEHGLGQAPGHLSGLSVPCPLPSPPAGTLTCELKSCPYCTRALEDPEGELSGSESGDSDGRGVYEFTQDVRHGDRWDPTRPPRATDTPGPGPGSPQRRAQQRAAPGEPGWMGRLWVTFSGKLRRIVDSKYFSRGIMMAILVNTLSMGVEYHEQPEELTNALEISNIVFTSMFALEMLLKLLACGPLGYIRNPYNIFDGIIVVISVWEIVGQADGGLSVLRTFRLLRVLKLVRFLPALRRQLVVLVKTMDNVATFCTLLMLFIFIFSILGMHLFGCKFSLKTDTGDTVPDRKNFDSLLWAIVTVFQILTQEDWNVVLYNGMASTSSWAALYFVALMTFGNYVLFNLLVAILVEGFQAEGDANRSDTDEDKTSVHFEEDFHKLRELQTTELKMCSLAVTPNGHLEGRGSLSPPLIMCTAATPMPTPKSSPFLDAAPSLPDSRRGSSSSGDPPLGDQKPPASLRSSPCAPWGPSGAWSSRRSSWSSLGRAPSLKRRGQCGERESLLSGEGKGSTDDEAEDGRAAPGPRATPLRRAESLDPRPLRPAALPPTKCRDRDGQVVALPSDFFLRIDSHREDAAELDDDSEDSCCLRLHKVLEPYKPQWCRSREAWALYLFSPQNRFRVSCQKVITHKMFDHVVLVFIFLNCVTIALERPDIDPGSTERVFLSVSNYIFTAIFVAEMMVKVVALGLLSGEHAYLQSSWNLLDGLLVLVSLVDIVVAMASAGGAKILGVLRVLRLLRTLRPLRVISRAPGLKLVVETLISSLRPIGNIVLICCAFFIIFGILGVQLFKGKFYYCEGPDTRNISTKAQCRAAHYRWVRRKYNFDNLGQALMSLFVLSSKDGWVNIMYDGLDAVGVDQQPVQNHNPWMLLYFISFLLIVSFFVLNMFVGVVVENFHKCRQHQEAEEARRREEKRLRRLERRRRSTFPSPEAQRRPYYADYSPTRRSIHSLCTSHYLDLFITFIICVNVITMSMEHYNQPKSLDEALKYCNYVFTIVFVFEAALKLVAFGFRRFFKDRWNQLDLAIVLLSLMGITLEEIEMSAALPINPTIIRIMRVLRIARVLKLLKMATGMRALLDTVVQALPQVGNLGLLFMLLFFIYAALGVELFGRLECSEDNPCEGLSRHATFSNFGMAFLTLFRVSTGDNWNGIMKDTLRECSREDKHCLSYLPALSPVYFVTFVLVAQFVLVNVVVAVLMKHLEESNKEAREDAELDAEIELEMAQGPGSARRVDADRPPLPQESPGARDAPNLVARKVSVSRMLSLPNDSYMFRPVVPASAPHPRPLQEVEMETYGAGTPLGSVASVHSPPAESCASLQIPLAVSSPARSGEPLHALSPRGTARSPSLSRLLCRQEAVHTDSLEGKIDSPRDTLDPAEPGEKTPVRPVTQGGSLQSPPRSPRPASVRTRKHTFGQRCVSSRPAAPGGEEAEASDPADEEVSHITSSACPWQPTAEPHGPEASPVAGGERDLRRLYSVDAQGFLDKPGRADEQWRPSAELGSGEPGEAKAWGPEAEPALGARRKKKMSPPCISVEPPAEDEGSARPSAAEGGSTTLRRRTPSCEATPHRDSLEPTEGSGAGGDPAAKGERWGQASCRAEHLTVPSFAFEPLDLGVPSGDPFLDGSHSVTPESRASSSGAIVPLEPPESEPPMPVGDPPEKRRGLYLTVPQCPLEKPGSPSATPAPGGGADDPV
Description: (§2) Compounds were evaluated for kappa (KOR), mu (MOR), and delta (DOR) opioid receptor agonist and antagonist activity in three individual cell lines overexpressing Gαq16 (CHO-RD-HGA16, Molecular Devices) and the human kappa, mu, and delta opioid receptors, respectively. The day before the assay, cells were plated into 96-well black-walled assay plates at 30,000 cells/well in Ham's F12 supplemented with 10% fetal bovine serum, and 100 units of penicillin and streptomycin. The cells were incubated overnight at 37° C., 5% CO2. Prior to the assay, Calcium 5 dye (Molecular Devices) was reconstituted according to the manufacturer's instructions. The reconstituted dye was diluted 1:40 in pre-warmed (37° C.) assay buffer (1×HBSS, 20 mM HEPES, 2.5 mM probenecid, pH 7.4 at 37° C.). Growth medium was removed and the cells were gently washed with 100 μL of pre-warmed (37° C.) assay buffer. The cells were incubated for 45 minutes at 37° C., 5% CO2 in 200 μL of the diluted Calcium 5 dye. For the agonist screen, a single concentration of each test compound and receptor-specific controls (U69,593, DAMGO, and DPDPE for KOR, MOR, and DOR, respectively) were prepared at 10× the desired final concentration in 1% DMSO/assay buffer, aliquoted into a 96-well polystyrene plate, and warmed to 37° C. After the dye-loading incubation period, pretreatment solution was added to each well (25 μL of 9% DMSO/assay buffer) and, after 15 min, the plate was read with a FlexStation II (Molecular Devices). Calcium-mediated changes in fluorescence were monitored every 1.52 seconds over a 60 second time period, with the FlexStation II adding 50 μL of test compounds at the 19 second time point (excitation at 485 nm, detection at 525 nm). Peak kinetic reduction (SoftMax, Molecular Devices) relative fluorescence units (RFU) were used to calculate % control agonist Emax with the equation % Emax=(test compound RFU/control agonist RFU)×100. For the antagonist screens, the same procedure was followed except that the pretreatment solution consisted of the test compounds (prepared at […] the desired final concentration in 9% DMSO/assay buffer) and the FlexStation added the EC60 concentration (prepared at 10× the desired final concentration in 1% DMSO/assay buffer) of each respective control agonist. Peak RFU were used to calculate % control EC60 inhibition with the equation % inhibition=((EC60 RFU−test compound RFU)/EC60 RFU)×100. When IC50 determinations were made, the same antagonist screen procedure was followed except that cells were pretreated with 8-pt concentration-response curves of the test compounds. Peak RFU were plotted against the log of compound concentration using non-linear regression analysis to generate IC50 values (GraphPad Prism). Each test sample was analyzed in duplicate in two independent experiments.
Compounds were evaluated for activity at CaV 3.2 using stable human CaV3.2-HEK293 cells and the control agonist calcium chloride. The day before the assay, cells were plated into 96-well black-walled assay plates coated with poly-D-lysine in DMEM-F12 supplemented with 10% fetal bovine serum, 100 units penicillin/streptomycin, and 500 μM sodium pyruvate, and incubated at 37° C., 5% CO2 overnight. Prior to the assay, Calcium 5 dye (Molecular Devices) was reconstituted according to the manufacturer instructions. The reconstituted dye was diluted 1:10 in pre-warmed (37° C.) assay buffer (1×HBSS, […], […], pH 7.4 at 37° C.). The cells were incubated for 45 minutes at 37° C., 5% CO2 in 200 μL of the diluted Calcium 5 dye. Compounds were prepared as described above and the plate was read with a FLIPR Tetra (Molecular Devices). Calcium-mediated changes in fluorescence were monitored every 1 second over a 60 second time period, with the Tetra adding 25 μL of appropriate compound at the 10 second time point (excitation at 470-495 nm, detection at 515-575 nm). […]

[4] = biological target: KOR (Homo sapiens, UniProt P41145); assay: KOR calcium mobilization agonist/antagonist screen (CHO-RD-HGA16 cells); design: host or cells: CHO-RD-HGA16; conditions: single concentration; for Emax: CHO-RD-HGA16, agonist screen, control agonist U69,593; for KOR Calcium % U69, 593 Inhibition: antagonist screen, vs EC60 of U69,593
Sequence of KOR (P41145 whole entry): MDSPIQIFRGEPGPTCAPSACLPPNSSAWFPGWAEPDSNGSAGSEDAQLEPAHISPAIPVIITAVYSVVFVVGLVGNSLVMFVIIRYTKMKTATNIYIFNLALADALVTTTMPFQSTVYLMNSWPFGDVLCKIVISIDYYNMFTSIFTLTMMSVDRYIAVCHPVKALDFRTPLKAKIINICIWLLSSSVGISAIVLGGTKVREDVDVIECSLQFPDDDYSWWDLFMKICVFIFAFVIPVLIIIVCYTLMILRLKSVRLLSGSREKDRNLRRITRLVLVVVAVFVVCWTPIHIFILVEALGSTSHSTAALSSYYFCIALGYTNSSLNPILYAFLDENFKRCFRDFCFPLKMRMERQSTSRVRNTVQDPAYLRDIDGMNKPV
Description: as §2

[5] = biological target: MOR (Homo sapiens, UniProt P35372); assay: MOR calcium mobilization agonist/antagonist screen (CHO-RD-HGA16 cells); design: host or cells: CHO-RD-HGA16; conditions: single concentration; for Emax: CHO-RD-HGA16, agonist screen, control agonist DAMGO; for MOR Calcium % DAMGO Inhibition: antagonist screen, vs EC60 of DAMGO
Sequence of MOR (P35372 whole entry): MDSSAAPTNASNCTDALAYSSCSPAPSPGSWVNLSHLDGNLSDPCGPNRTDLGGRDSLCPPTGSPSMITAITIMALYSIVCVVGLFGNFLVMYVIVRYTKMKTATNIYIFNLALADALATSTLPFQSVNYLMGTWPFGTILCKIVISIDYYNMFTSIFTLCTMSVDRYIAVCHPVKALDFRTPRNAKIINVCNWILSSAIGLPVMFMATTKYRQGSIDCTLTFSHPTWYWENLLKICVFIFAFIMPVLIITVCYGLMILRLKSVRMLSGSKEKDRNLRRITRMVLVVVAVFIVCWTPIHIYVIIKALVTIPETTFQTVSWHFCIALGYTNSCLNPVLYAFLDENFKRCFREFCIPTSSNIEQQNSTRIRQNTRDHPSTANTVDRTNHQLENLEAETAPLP
Description: as §2

[6] = biological target: DOR (Homo sapiens, UniProt P41143); assay: DOR calcium mobilization agonist/antagonist screen (CHO-RD-HGA16 cells); design: host or cells: CHO-RD-HGA16; conditions: single concentration; for Emax: CHO-RD-HGA16, agonist screen, control agonist DPDPE; for DOR Calcium % DPDPE Inhibition: antagonist screen, vs EC60 of DPDPE
Sequence of DOR (P41143 whole entry): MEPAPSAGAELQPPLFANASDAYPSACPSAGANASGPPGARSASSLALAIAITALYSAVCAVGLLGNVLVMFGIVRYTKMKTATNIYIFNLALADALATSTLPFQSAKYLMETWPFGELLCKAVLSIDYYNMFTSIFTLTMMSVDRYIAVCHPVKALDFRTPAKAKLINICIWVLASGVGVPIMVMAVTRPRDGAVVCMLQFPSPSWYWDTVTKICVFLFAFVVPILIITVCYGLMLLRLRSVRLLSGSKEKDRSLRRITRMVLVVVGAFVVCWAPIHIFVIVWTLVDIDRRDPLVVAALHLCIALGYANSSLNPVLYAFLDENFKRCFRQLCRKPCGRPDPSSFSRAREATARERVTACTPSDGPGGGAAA
Description: as §2

Row | SMILES | EC50 [1] [µM] | CXCR4 β-arrestin % CXCL-12Emax (n = 2) [2] [%] | CaV 3.2 % CaCl2 Inhibition [3] [%] | Emax [4] [%] | KOR Calcium % U69, 593 Inhibition [4] [%] | Emax [5] [%] | MOR Calcium % DAMGO Inhibition [5] [%] | Emax [6] [%] | DOR Calcium % DPDPE Inhibition [6] [%] | Emax [1] [%]
1 | C/C=C1/CN2CC[C@H]1C(=O)c1[nH]c3ccc(Cl)cc3c1C2 [WW-2, (4E,5R)-10-chloro-4-ethylidene-1,4,5,7-tetrahydro-2,5-ethanoazocino[4,3-b]indol-6(3H)-one] | > 10 | 4 | 5 | 1 | 22 | 0 | 5 | 0 | 18 | –
2 | C/C=C1/CN2CC[C@H]1C(=O)c1[nH]c3cc(F)ccc3c1C2 [WW-3, (4E,5R)-4-ethylidene-9-fluoro-1,4,5,7-tetrahydro-2,5-ethanoazocino[4,3-b]indol-6(3H)-one] | > 10 | 1 | 1 | 1 | 14 | 1 | 1 | 0 | 9 | –
3 | C/C=C1/CN2CC[C@H]1C(=O)c1[nH]c3ccc(F)cc3c1C2 [WW-4, (4E,5R)-10-fluoro-4-ethylidene-1,4,5,7-tetrahydro-2,5-ethanoazocino[4,3-b]indol-6(3H)-one] | > 10 | 2 | 6 | 1 | 14 | 0 | 0 | 1 | 9 | –
4 | C/C=C1/CN2CC[C@H]1C(=O)c1[nH]c3ccc(OC)cc3c1C2 [WW-5, (4E,5R)-10-methoxy-4-ethylidene-1,4,5,7-tetrahydro-2,5-ethanoazocino[4,3-b]indol-6(3H)-one] | 8.15 ± 0.59 | 7 | 9 | 20 | 17 | 1 | 13 | 2 | 22 | 171 ± 6
5 | CCOC(=O)c1[nH]c2ccccc2c1CN1CCC(C(=O)OC)CC1 [WW-6, ethyl 3-{[4-(methoxycarbonyl)piperidin-1-yl]methyl}-1H-indole-2-carboxylate] | > 10 | 7 | 19 | 0 | 22 | 0 | 11 | 0 | 1 | –
6 | C/C=C1/CN(Cc2ccc(OC)cc2)CC[C@H]1C(=O)c1cc2ccccc2[nH]1 [WW-7, (3E,4R)-(3-ethylidene-1-(4-methoxybenzyl)piperidin-4-yl)(1H-indol-2-yl)methanone] | 1.87 ± 0.096 | 0 | 50 | 14 | 38 | 2 | 14 | 6 | 16 | 139 ± 2
7 | C/C=C1/CNCC[C@H]1C(=O)c1cc2ccccc2[nH]1 [WW-8, (3E,4R)-(3-ethylidenepiperidin-4-yl)(1H-indol-2-yl)methanone] | > 10 | 4 | −14 | 3 | 4 | 1 | 3 | 5 | 3 | –
8 | C/C=C1/CN(CCc2ccc(F)cc2)CC[C@H]1C(=O)c1cc2ccccc2[nH]1 [WW-9, [(3E,4R)-3-ethylidene-1-(4-fluorophenethyl)piperidin-4-yl](1H-indol-2-yl)methanone] | 2.07 ± 0.18 | 10 | 45 | 1 | 23 | 0 | 34 | 0 | 31 | 132 ± 6
9 | C/C=C1/CN(Cc2ccc(OC)cc2)CC[C@H]1C(O)c1cc2cc(C#N)ccc2n1S(=O)(=O)c1ccccc1 (stereo partly drawn) [WW-70, 2-{[(3E, 4R)-(3-ethylidene-1-(4-methoxybenzyl)piperidin-4-yl)](hydroxy)methyl}-1-(phenylsulfonyl)-1H-indole-5-carbonitrile] | > 10 | −2 | – | – | – | – | – | – | – | –
10 | C/C=C1/CN(CCCCCC(=O)OC)CC[C@H]1C(=O)c1cc2ccccc2[nH]1 [WW-71, Methyl 6-[(3E,4R)-3-ethylidene-4-(1H-indol-2-ylcarbonyl)piperidin-1-yl]hexanoate] | > 10 | 4 | – | – | – | – | – | – | – | –
11 | C/C=C1/CN(CCCCOc2ccccc2)CC[C@H]1C(=O)c1cc2ccccc2[nH]1 [WW-72, (3E,4R)-(3-ethylidene-1-(4-phenoxybutyl)piperidin-4-yl)(1H-indol-2-yl)methanone] | 3.78 ± 0.98 | 4 | – | – | – | – | – | – | – | 145 ± 16
12 | C/C=C1/CN(CCCCC)CC[C@H]1C(=O)c1cc2cc(-c3ccc(F)cc3)ccc2[nH]1 [WW-73, [(3E,4R)-3-ethylidene-1-pentylpiperidin-4-yl][5-(4-fluorophenyl)-1H-indol-2-yl]methanone] | > 10 | 9 | – | – | – | – | – | – | – | –
13 | C/C=C1/CN(CCCCC)CC[C@H]1C(O)c1cc2ccccc2n1S(=O)(=O)c1ccccc1 (stereo partly drawn) [WW-74] | 0.177 ± 0.01 | 3 | – | – | – | – | – | – | – | 172 ± 6
